Test results taken from US20220370397A1, “METHODS AND COMPOSITIONS FOR TREATMENT OF CANCER” (Enzychem Lifesciences Corporation, priority 2019, published 2022).

Key:
[1] = tested on: MB49 murine bladder cancer cells; test: MB49 bladder cancer syngeneic model, PLAG with or without PD-L1 antibody; format: in vivo, C57BL/6 mice
Source text: The syngeneic model was used (n=6) to investigate the enhanced anti-tumor effect of PD-L1 antibody with the addition of PLAG. MB49 murine bladder cancer cells were implanted into the C57BL/6 mice subcutaneously and bred for 5 weeks. After a week from tumor implantation, PLAG at different dosages (50/100 mpk) were daily administered orally for another 4 weeks with or without 5 mpk PD-L1 antibody (10F.9G2). PD-L1 antibody was delivered via IP injection once a week. (FIG. 7, Table 1)

[2] = tested on: MDA-MB-231 breast cancer Xenograft; test: MDA-MB-231 breast cancer Xenograft model, AC-regimen alone and PLAG co-treatment; format: in vivo, mouse
Method: MDA-MB-231 breast cancer Xenograft model was used. Tumor growth was evaluated in the AC-regimen alone and PLAG co-treated animals. AC-regimen was delivered via IP injection twice a week with dose of 2/20 and 5/50 mph (Doxorubicin/Cyclophosphamide), and PLAG was daily administered with 100 and 250 mpk. Tumor growth was calculated with 3 day intervals. Neutrophil chemotaxis related chemokines, CXCL1/2/8 and circulating neutrophils were also evaluated with 2 week internal. Expression of apoptosis molecular markers, Bax/Bak and tumor-infiltrating neutrophil (TIN) in the tumor lesion was analyzed by immunohistochemistry (IHC).

[3] = tested on: tumor in Xenograft mice; test: PLAG alone in Xenograft mice (tumor mass, neutrophil infiltration, chemokines, cell cycle factors by IHC); format: in vivo, mouse
Source text: Compared to positive control: *P<0.05, ***P<0.001 (each experiment n=5).
Compared to positive control: *P<0.05, **P<0.01 (each experiment n=5).
N.S., not significant. Compared to positive control; #P<0.05, ##P<0.01, ###P<0.001 (each experiment n=5). N.S.′, not significant.
Compared to positive control: *P<0.05, **P<0.01 (each experiment n=5). N.S., not significant.

[4] = tested on: LLC-1 lung carcinoma; test: LLC-1 syngeneic model, PLAG with or without aPD-1; format: in vivo, C57BL/6 mice
Source text: To investigate the enhanced anti tumor effect of the anti-PD-1 antibody (aPD-1 with the addition of 1-palmitoyl-2-linoleoyk-3-acetyl-rac-glycerol (PLAG), the syngeneic model was used (n=6/group), LLC-1 lung carcinoma was implanted into C57BL/6 mice subcutaneously. PLAG was daily administrated for 4 weeks with or without aPD-1 (RMP 1-14. aPD-1 was delivered via IP injection once a week. The degree of infiltrated lymphocyte population and neutrophils in the tumor and blood on the sacrificed day were analyzed (FIG. 12, Table 2).

[5] = tested on: PAR2; test: PAR2 degradation (western blot, immunoprecipitation, ubiquitination assay); format: cell-based; settings: PLAG and neutrophil co-treated cancer cells / cancer tissues
[6] = tested on: neutrophil-activated MDA-MB-231 breast cancer cells; test: Cell growth and cell cycle activity in neutrophil-activated cancer cells; format: cell-based
Source text: Compared to negative control each week: *P<0.05, **P<0.01, ***P<0.001 (each experiment n=5). N.S., not significant. Compared to neutrophil stimulated only group each week: #P<0.05, ##P<0.01, ###P<0.001 (each experiment n=5). N.S.′, not significant.

SMILES: CCCCC/C=C\C/C=C\CCCCCCCC(=O)OC(COC(C)=O)COC(=O)CCCCCCCCCCCCCCC (stereo not drawn) [PLAG, 1-palmitoyl-2-linoleoyl-3-acetylglycerol]
- number of TINs ([1]; PLAG alone): effectively reduced
- tumor burden compared to positive control ([1]; PLAG alone 50 and 100 mpk, oral daily, p<0.05): decreased to a significant value
- growth of the tumor compared to PD-L1 antibody alone ([1]; PLAG and PD-L1 antibody simultaneously): significantly reduced
- neutrophil-to-lymphocyte ratio (NLR) level compared to PD-L1 antibody alone ([1]; PLAG and PD-L1 antibody, blood, every two weeks): significantly decreased
- chemokine secretion ([1]; PLAG treated groups): reduced
- tumor tissue on the sacrifice day ([2]; 250 mpk PLAG co-treated with 5/50 AC-regimen): no tumor tissues were found
- tumor burden compared with AC-regimen alone group ([2]; PLAG 100 and 250 mpk daily co-treated with 5/50 AC-regimen, p<0.05): significantly decreased in a concentration-dependent manner
- tumor-infiltrating neutrophil (TIN) ([2]; PLAG added to AC-regimen, IHC): Significantly reduced
- chemokine expression ([2]; PLAG added to AC-regimen, chemokine analysis): Significantly reduced
- chemokine expression ([2]; PLAG alone): reduced
- tumor growth ([2]; PLAG alone): interruption of tumor growth
- tumor-infiltrating neutrophil (TIN) ([2]; PLAG alone): reduced
- kind of combined effect on regression of tumor burden ([2]; PLAG co-treated with AC-regimen): synergistic effect
- tumor burden compared with AC-regimen alone ([2]; PLAG co-treated with AC-regimen, until sacrifice): smaller tumor burden than that in AC-regimen alone
- expression of neutrophil chemotactic chemokine in cancer tissues [3]: effectively regulate
- infiltration of neutrophils in cancer tissues [3]: control excessive infiltration of neutrophils
- cell cycle of cancer tissues / excessive growth ([3]; without additional chemotherapeutic agents): regulate excessive growth by inhibiting the cell cycle
- tumor burden compared to positive control ([4]; PLAG alone 50 and 100 mpk): significantly reduced
- activity and infiltration of cytotoxic T-Lymphocyte (CTLs) in the tumor compared to aPD-1 alone ([4]; PLAG co-treated with aPD-1): effectively increased
- neutrophil to lymphocyte ratio levels compared to aPD-1 alone ([4]; PLAG co-treated with aPD-1): decreased remarkably
- population of Th 17 compared to the positive control ([4]; PLAG co-treated with aPD-1): significant reduction
- tumor reduction compared to aPD-1 alone ([4]; PLAG co-treated with aPD-1): 18
- DAMP (adenosine) originated from tumor, plasma ([4]; PLAG treatment): rapid removal
- degree of neutrophil infiltration in the tumor ([4]; upon PLAG treatment): effectively reduced
- PAR2 degradation [5]: inducing PAR2 degradation
- cell cycle activity ([6]; neutrophil activated cancer cells): inhibitory effect
- cell growth ([6]; neutrophil-activated MDA-MB-231 cells, dose-dependent): inhibition of cell growth
